Values after ≈ are worked out from the molar mass of the structure shown. Active and inactive are the calls of the source. The rule behind the calls is not given here.
Assays:
Assay type in all cases: functional
Echinoidea = assay: Inhibition of mitosis in sea urchin egg at 1 uM
KB = assay: Cytotoxicity against human KB cells; details: read-out: ED50 (the source's name)
P388 = assay: In vivo antitumor activity against mouse P388 cells at 8 mg/kg

## COc1cc2c(c3oc4c(O)cccc4c(=O)c13)C[C@H]([C@@]1(C)CO1)O2 [PSOROSPERMIN]
Echinoidea
  Activity: Active
KB
  EC50: 0.1 mg/L (≈ 0.294 µM)
P388
  T/C: 158%
